Results published in BigSolDB 2.1.

Cc1cnc(NC(=O)C2=C(O)c3ccccc3S(=O)(=O)N2C)s1
Conditions | solubility (mole fraction)
in PEG-400, 298.15 K | 0.00932
in PEG-400, 303.15 K | 0.0096
in PEG-400, 308.15 K | 0.0101
in PEG-400, 313.15 K | 0.0104
in PEG-400, 318.15 K | 0.0106

in water
Conditions | solubility (mole fraction)
298.15 K | 4.24e-07
303.15 K | 6.28e-07
308.15 K | 9.48e-07
313.15 K | 1.34e-06
318.15 K | 1.93e-06
